The values below come from PMC4821887, “Identification of chemicals that mimic transcriptional changes associated with autism, brain aging and neurodegeneration” (Nature Communications, 2016).

Where two headings read alike, the source gives them in different places.

The data set deals with mouse cortical neuron cultures.

Consider `CCN(CC)C(=O)C(C)Oc1cccc2ccccc12` (stereo not shown) [Napropamide], for which, for the setting “mouse, 24 h, 10 µM”, the “% Dead cells (vehicle subtracted)” value is recorded as -2.444%. For `OC(c1ccc(Cl)cc1)(c1ccc(Cl)cc1)C(Cl)(Cl)Cl` [Dicofol], under “mouse, 24 h, 10 µM”, the “% Dead cells (vehicle subtracted)” value was determined as 1.054%. Consider `CCc1cccc(CC)c1N(COC)C(=O)CCl` [Alachlor], for which the “% Dead cells (vehicle subtracted)” value came out at 3.545%. Still for that read-out and setting: for `COP(=S)(OC)Oc1nc(Cl)c(Cl)cc1Cl` [Chlorpyrifos-methyl] the value was -0.3201%. In the case of `CC1(C)CON(Cc2ccccc2Cl)C1=O` [Clomazone], the “% Dead cells (vehicle subtracted)” value is recorded as -3.452%. The same measure, in the same setting: the value for `CCCSP(=O)(OCC)Oc1ccc(Br)cc1Cl` (stereo not shown) [Profenofos] was -2.76%; that for `Nc1c(Cl)cc([N+](=O)[O-])cc1Cl` [Dicloran] was -0.1169%.

For the molecule `COc1ccc(C(c2ccc(OC)cc2)C(Cl)(Cl)Cl)cc1` [Methoxychlor], the “% Dead cells (vehicle subtracted)” value is on record as -0.6222%. `CC1(C)C(C=C(Cl)Cl)C1C(=O)OC(C#N)c1cccc(Oc2ccccc2)c1` (stereo not shown) [Cypermethrin]: under “mouse, 24 h, 10 µM”, the “% Dead cells (vehicle subtracted)” value was -3.377%. For the molecule `COc1nn(CSP(=S)(OC)OC)c(=O)s1` [Methidathion], the “% Dead cells (vehicle subtracted)” value turned out to be 0.1761%. In the case of `CCOP(=O)(SC(C)CC)N1CCSC1=O` (stereo not shown) [Fosthiazate], the “% Dead cells (vehicle subtracted)” value was -0.4742%. The same measure, in the same setting: for Metiram-zinc the value was -0.5751%. In the case of `CNC(=S)[S-].O.O.[Na+]` [Metam-sodium hydrate], the “% Dead cells (vehicle subtracted)” value is recorded as -1.491%. On to `COc1nc(NC(C)C)nc(NC(C)C)n1`, for which the “% Dead cells (vehicle subtracted)” value is -1.14%. Regarding `Cc1cc(C)nc(Nc2ccccc2)n1` [Pyrimethanil], the “% Dead cells (vehicle subtracted)” value (mouse, 24 h, 10 µM) is -4.407%. `CCOC(=O)CC(SP(=O)(OC)OC)C(=O)OCC` (stereo not shown) [Malaoxon]: the “% Dead cells (vehicle subtracted)” value is -0.008689%. Still for that read-out and setting: the value for `CC(C)Nc1nc(Cl)nc(NC(C)C)n1` was 0.5652%. On the same count and under the same terms, for Abamectin the value was 4.666%; for `Cc1ccc(C(=O)c2ccccc2)cc1` [Methanone (4-Methylbenzophenone)], 2.416%.

`CCOc1nc(F)cc2nc(S(=O)(=O)Nc3c(Cl)cccc3Cl)nn12` [Diclosulam]: the “% Dead cells (vehicle subtracted)” value came to 0.003204%. Still for that read-out and setting: the value for `COP(=S)(OC)Oc1ccc(SC)c(C)c1` [Fenthion] was -0.5799%. As for `S=C1NCCN1` [Ethylenethiourea (2-Imidazolidinethione)], the “% Dead cells (vehicle subtracted)” value is reported as -0.5482%. Same read-out and setting: the value for `COc1nc(C)nc(NC(=O)NS(=O)(=O)c2ccccc2C(=O)O)n1` [Metsulfuron (Ally)] was 1.078%.

On to `CC(C)C1(C)N=C(c2ncccc2C(=O)O)NC1=O` (stereo not shown) [Imazapyr], for which the “% Dead cells (vehicle subtracted)” value (mouse, 24 h, 10 µM) is given as 1.122%.

Regarding `Cc1ccn2nc(S(=O)(=O)Nc3c(F)cccc3F)nc2n1` [Flumetsulam], for the setting “mouse, 24 h, 10 µM”, the “% Dead cells (vehicle subtracted)” value turned out to be 0.4495%. For the molecule `CC1(C)CCC(=Cc2ccc(Cl)cc2)C1(O)Cn1cncn1` (stereo not shown) [Triticonazole], for the setting “mouse, 24 h, 10 µM”, the “% Dead cells (vehicle subtracted)” value is reported as 0.8709%. Still for that read-out and setting: the value for `CCCCC(O)(Cn1cncn1)c1ccc(Cl)cc1Cl` (stereo not shown) [Hexaconazole] was -2.068%. Take `CNC(=O)O/N=C/C(C)(C)SC` [Aldicarb]: the “% Dead cells (vehicle subtracted)” value is recorded as -0.4371%. On to `CN=C=S`, for which the “% Dead cells (vehicle subtracted)” value is 3.139%. `Cc1cnc(C2=NC(C)(C(C)C)C(=O)N2)c(C(=O)O)c1` (stereo not shown): the “% Dead cells (vehicle subtracted)” value was -0.5785%. On to `COCCO` [Methyl cellosolve], for which the “% Dead cells (vehicle subtracted)” value is given as 2.2057%. For the molecule `CCOP(=S)(OCC)OC(Cl)C(Cl)(Cl)Cl` (stereo not shown) [Chlorethoxyfos], the “% Dead cells (vehicle subtracted)” value worked out at 0.5415%. The same measure, in the same setting: for `COC(=O)C(C)Oc1ccc(Oc2ccc(Cl)cc2Cl)cc1` (stereo not shown) [Diclofop-methyl] the value was -2.902%.

For `COP(=S)(OC)SCn1nnc2ccccc2c1=O` [Azinphos-methyl], the “% Dead cells (vehicle subtracted)” value is -0.9211%. `CCNc1nc(NC(C)C)nc(SC)n1` [Ametryn]: the “% Dead cells (vehicle subtracted)” value (mouse, 24 h, 10 µM) worked out at 0.09019%. For `C#CCOC(=O)[C@@H](C)Oc1ccc(Oc2ncc(Cl)cc2F)cc1` [Clodinafop-propargyl], the “% Dead cells (vehicle subtracted)” value (mouse, 24 h, 10 µM) is reported as -2.625%. As to `C=CCOC(Cn1ccnc1)c1ccc(Cl)cc1Cl` (stereo not shown) [Imazalil], the “% Dead cells (vehicle subtracted)” value stood at 0.2633%. In the case of `CCc1ccc(C(=O)NN(C(=O)c2cc(C)cc(C)c2)C(C)(C)C)cc1` [Tebufenozide], the “% Dead cells (vehicle subtracted)” value is listed as -1.661%. Consider `CCOC(=O)C(C)OC(=O)c1cc(Oc2ccc(C(F)(F)F)cc2Cl)ccc1[N+](=O)[O-]` (stereo not shown) [Lactofen], for which, for the setting “mouse, 24 h, 10 µM”, the “% Dead cells (vehicle subtracted)” value is reported as -1.539%. For the molecule `CCCN(CCC)c1c([N+](=O)[O-])cc(C(F)(F)F)cc1[N+](=O)[O-]` [Trifluralin], the “% Dead cells (vehicle subtracted)” value was 0.2689%. Take `CC(C)N1C(=O)N(c2ccccc2)CS/C1=N\C(C)(C)C` [Buprofezin]: the “% Dead cells (vehicle subtracted)” value (mouse, 24 h, 10 µM) is on record as -1.5902%. Take `CC1(C)C(C(=O)OC(C#N)c2cccc(Oc3ccccc3)c2)C1(C)C` (stereo not shown) [Fenpropathrin (Danitol)]: the “% Dead cells (vehicle subtracted)” value is on record as -1.601%. `CCCCOCCOCCOCc1cc2c(cc1CCC)OCO2` [Piperonyl butoxide]: under “mouse, 24 h, 10 µM”, the “% Dead cells (vehicle subtracted)” value is listed as -3.535%. Turning to `CON(C)C(=O)Nc1ccc(Cl)c(Cl)c1` [Linuron], the “% Dead cells (vehicle subtracted)” value is on record as -0.9348%.

Regarding `O=C(O)c1cc(Oc2ccc(C(F)(F)F)cc2Cl)ccc1[N+](=O)[O-]` [Acifluorfen], the “% Dead cells (vehicle subtracted)” value is listed as 3.873%. Take `Oc1ccc(C(c2ccc(O)cc2)C(Cl)(Cl)Cl)cc1`: the “% Dead cells (vehicle subtracted)” value is reported as 1.986%.

With `CCOP(=S)(OCC)Oc1ccc2c(C)c(Cl)c(=O)oc2c1` [Coumaphos], the “% Dead cells (vehicle subtracted)” value stood at 0.01959%.

Turning to `CCSC(=O)N(CC(C)C)CC(C)C` [Butylate], the “% Dead cells (vehicle subtracted)” value (10 µM chemical, mouse cortical neuron cultures) is given as 1.861%. Consider `O=C(O)C(F)(F)C(F)(F)C(F)(F)C(F)(F)C(F)(F)C(F)(F)C(F)(F)F`, for which the “% Dead cells (vehicle subtracted)” value is on record as -2.482%. For `C=CCOC(=O)C(C)(C)OC(=O)c1cc(-n2c(=O)cc(C(F)(F)F)n(C)c2=O)ccc1Cl` [Butafenacil], the “% Dead cells (vehicle subtracted)” value (mouse, 24 h, 10 µM) is given as -4.681%.

With `O=C(O)c1nc(Cl)ccc1Cl`, the “% Dead cells (vehicle subtracted)” value is -1.907%.

For the molecule `CCCOC/C(=N\c1ccc(Cl)cc1C(F)(F)F)n1ccnc1` [Triflumizole], the “% Dead cells (vehicle subtracted)” value (mouse, 24 h, 10 µM) amounted to 1.241%. Take `CCNP(=S)(OC)O/C(C)=C/C(=O)OC(C)C` (stereo not shown) [Propetamphos]: the “% Dead cells (vehicle subtracted)” value is reported as -0.3061%. Still for that read-out and setting: the value for `CCCN(CCC)C(=O)SCC` [EPTC] was 3.437%. On to `CC(COc1ccc(Oc2ccccc2)cc1)Oc1ccccn1` (stereo not shown) [Pyriproxyfen], for which the “% Dead cells (vehicle subtracted)” value (mouse, 24 h, 10 µM) was 1.128%. Regarding `CN(C)[C@@H]1C(O)=C(C(N)=O)C(=O)[C@@]2(O)C(O)=C3C(=O)c4c(O)cccc4[C@@](C)(O)[C@H]3[C@H](O)[C@@H]12` [Oxytetracycline dihydrate], the “% Dead cells (vehicle subtracted)” value runs as follows: (mouse, 24 h, 0.1 µM) -3.324%; (mouse, 24 h, 1 µM) -0.5636%; (mouse, 24 h, 10 µM) 21.6384%. On to `CS(=O)(=O)c1ccc(C(=O)C2C(=O)CCCC2=O)c([N+](=O)[O-])c1` [Mesotrione], for which the “% Dead cells (vehicle subtracted)” value is 0.1871%. The same measure, in the same setting: for `O=C1C2CC=CCC2C(=O)N1SC(Cl)(Cl)Cl` (stereo not shown) [Captan] the value was 2.374%.

With `CCCCNC(=O)n1c(NC(=O)OC)nc2ccccc21` [Benomyl], where the note is “mouse, 24 h, 10 µM”, the “% Dead cells (vehicle subtracted)” value is on record as 1.032%. On to `Oc1ccc(Cl)cc1Cc1ccccc1` [Clorophene], for which the “% Dead cells (vehicle subtracted)” value is given as 2.359%. Regarding `c1ccc2[nH]c(-c3cscn3)nc2c1` [Thiabendazole], the “% Dead cells (vehicle subtracted)” value (mouse, 24 h, 10 µM) is recorded as -3.658%.

As to `CCCN(CCC)c1c([N+](=O)[O-])cc(C(F)(F)F)c(N)c1[N+](=O)[O-]` [Prodiamine], the “% Dead cells (vehicle subtracted)” value is recorded as -0.1982%. Still for that read-out and setting: the value for `CCCCOC(=O)[C@@H](C)Oc1ccc(Oc2ccc(C(F)(F)F)cn2)cc1` was 0.5693%; that for `COc1cccc(C(=O)NN(C(=O)c2cc(C)cc(C)c2)C(C)(C)C)c1C` [Methoxyfenozide] was 0.2717%.

For `O=C(Nc1ccccc1)Nc1ccnc(Cl)c1` [Forchlorfenuron], the “% Dead cells (vehicle subtracted)” value is reported as 0.6006%. `CN/C(=N\[N+](=O)[O-])NCc1cnc(Cl)s1` [Clothianidin]: the “% Dead cells (vehicle subtracted)” value is -2.188%. Still for that read-out and setting: for `Clc1nc(Cl)nc(Nc2ccccc2Cl)n1` the value was -1.572%; for `C#CCC1=C(C)C(OC(=O)C2C(C=C(C)C)C2(C)C)CC1=O` (stereo not shown) [Prallethrin], -0.1241%; for `COCc1cnc(C2=NC(C)(C(C)C)C(=O)N2)c(C(=O)O)c1` (stereo not shown) [Imazamox], -0.1553%. For the molecule `CC(C)Oc1cccc(NC(=O)c2ccccc2C(F)(F)F)c1` [Flutolanil], the “% Dead cells (vehicle subtracted)” value is 9.589%. The same measure, in the same setting: for Chlorpyrifos oxon the value was 0.8087%. On to `COC(=O)c1ccccc1S(=O)(=O)NC(=O)N(C)c1nc(C)nc(OC)n1` [Tribenuron-methyl], for which the “% Dead cells (vehicle subtracted)” value (mouse, 24 h, 10 µM) is reported as -1.861%.

Take `CC(C1CC1)C(O)(Cn1cncn1)c1ccc(Cl)cc1` (stereo not shown) [Cyproconazole]: the “% Dead cells (vehicle subtracted)” value is, setting by setting: (mouse, 24 h, 0.1 µM) 3.058%; (mouse, 24 h, 1 µM) 5.165%; (mouse, 24 h, 10 µM) 6.321%.

Take `COP(=S)(OC)Oc1ccc([N+](=O)[O-])c(C)c1` [Fenitrothion]: the “% Dead cells (vehicle subtracted)” value is -1.338%. Consider `N#CN` [Cyanamide], for which the “% Dead cells (vehicle subtracted)” value came out at 0.2955%. As for `N#Cc1cc(Br)c(O)c(Br)c1`, the “% Dead cells (vehicle subtracted)” value is on record as -1.631%. `COC(=O)N(C(=O)N1CO[C@@]2(C(=O)OC)Cc3cc(Cl)ccc3C2=N1)c1ccc(OC(F)(F)F)cc1` [Indoxacarb]: the “% Dead cells (vehicle subtracted)” value (mouse, 24 h, 10 µM) is on record as 0.6208%. For the molecule `C=CCC1=C(C)[C@@H](OC(=O)[C@@H]2[C@@H](C=C(C)C)C2(C)C)CC1=O` [S-Bioallethrin], the “% Dead cells (vehicle subtracted)” value is given as -1.697%.
